Test results from publication PMC8682738, “Constrained peptides mimic a viral suppressor of RNA silencing” (Nucleic Acids Research, 2021).
Values joined by “and” are separate entries in the source; they are usually repeats but may differ in a detail not shown here. Equal values may be shown once. Positions of bridges follow the written chain, without caps; N, C: chain ends. Non-standard residues stand in square brackets, D forms with d. Residues, ends and D or L forms follow the SMILES beside them. *: point of attachment. FITC = O=C1OC2(c3ccc(O)cc3Oc3cc(O)ccc32)c2ccc(NC(=S)*)cc21; R8 = C=CCCCCCC[C@@](C)(N)C(=O)O; S5 = C=CCCC[C@](C)(N)C(=O)O; AEEA = NCCOCCOCC(=O)O

What was measured:
ds pal-RNA = experiment: EMSA with ds pal-RNA; assay type: binding; settings: fluorescein-labeled peptide 6 μM, RNA 3 μM, 10% native PAGE, 4°C
Experimental: (§1) Electrophoretic mobility shift assays (EMSAs) were performed using a Bio-Rad Mini-Protean gel system paired with a direct current (DC) power source (PowerPac™ HC, Bio-Rad). Typically, 6 μl solutions containing ds RNA (c = 3 μM) and fluorescein-labeled peptide (c = 6 μM) were incubated in binding buffer (10 mM Tris (pH 8.0), 0.5 mM EDTA, 12.5% glycerol and 150 mM KCl) at 4°C for 1 h. After incubation, bound RNA was resolved from peptide-free RNA using 10% non-denaturing polyacrylamide gels at 120 V in running buffer (25 mM Tris (pH 8.0), 200 mM glycine, 20 mM NaCl) at 4°C for 1 h. Visualization of fluorescent gel-bound species was conducted using a Typhoon Trio + fluorescence scanner (GE Healthcare Life Sciences). For nucleic acid visualization, gels were stained using 2 μl of SYBR™ gold nucleic acid gel dye (Molecular Probes) in 20 ml of TAE buffer (40 mM Tris, 1 mM EDTA, 20 mM acetic acid) for 45 min at RT before being visualized using a FluorChem™ gel documentation system (Alpha Innotech). To assess B3 binding to different ds RNA sequences (Supplementary Figure S20), 6 μl solutions containing hairpin RNA (c = 1 μM) and fluorescein-labeled B3 (c = 2 μM) were incubated in binding buffer (TAE and 10% glycerol) at RT for 1 h, and then resolved using 15% non-denaturing polyacrylamide gels (acrylamide/bis-acrylamide (19:1) in TAE) at 150 V in running buffer (TAE) at 4°C for 1.5 h. Visualization of fluorescent gel-bound species was conducted using a Bio-Rad ChemiDoc (Bio-Rad). Subsequently, gels were stained with SYBR™ gold nucleic acid gel dye (Invitrogen) as described above and visualized using the same imaging system. To assess B3 binding to pre–miR-21 (Supplementary Figure S24), the RNA was prepared at a fixed concentration (c = 1 μM) and incubated with varying concentrations of fluorescein-labeled B3 (c = 0–5 μM) in binding buffer (TAE and 10% glycerol) at RT for 1 h. After incubation, bound nucleic acid complexes were resolved using 15% non-denaturing polyacrylamide gels (acrylamide/bis-acrylamide (19:1) in TAE) at 150 V in running buffer (TAE) at 4°C for 1.5 h, followed by visualization and staining with SYBR™ gold nucleic acid gel dye (Invitrogen).

proteinase K = proteinase K (Parengyodontium album, UniProt P06873); experiment: Protease stability assay; assay type: in vitro ADME; settings: for Half-life (t1/2): proteinase K 10 μg·ml^−1, fluorescein-labeled peptide 50 μM, 10 mM Tris pH 8.0, 150 mM NaCl, room temperature, HPLC absorbance 210 nm, exponential decay fit
Chain of proteinase K (P06873 106-384): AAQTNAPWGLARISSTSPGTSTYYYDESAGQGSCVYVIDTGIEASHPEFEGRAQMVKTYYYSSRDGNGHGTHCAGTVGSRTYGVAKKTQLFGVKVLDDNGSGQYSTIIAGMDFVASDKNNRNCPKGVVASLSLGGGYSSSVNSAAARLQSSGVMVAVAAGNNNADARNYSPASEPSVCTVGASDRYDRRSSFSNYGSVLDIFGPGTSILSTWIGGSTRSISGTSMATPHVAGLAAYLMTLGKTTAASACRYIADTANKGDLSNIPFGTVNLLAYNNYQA
Experimental: Protease stability assays were performed in analogy to a previously published protocol ([47]). Stocks of fluorescein-labeled peptides were prepared to a concentration of 55.5 μM in assay buffer (10 mM Tris, pH 8.0, 150 mM NaCl) and separately stocks of proteinase K also in assay buffer (c = 100 μg·ml^−1). To begin each experiment, peptide and proteinase K stocks were mixed (final concentrations: c = 10 μg·ml^−1 proteinase K, c = 50 μM fluorescein-labeled peptide; final volume = 500 μl) and incubated at room temperature. At each time point, 50 μl of the reaction mixture was quenched by adding 100 μl of TFA/ACN/H2O (v/v/v, 1:49:49) and subsequently incubated for 2 min on ice. Following centrifugation (15 min, 13200 rpm, 4°C), samples (45 μl) were monitored by analytical HPLC using a linear gradient of 10–60% HPLC solvent B over 20 min. The amount of remaining peptide was quantified via absorbance at λ = 210 nm (intact peptide (%)) and plotted against time (t) (h). Half-life (t1/2) was calculated by fitting the data to an exponential decay using the software Prism 5.0 (GraphPad).

[1] = CD spectroscopy, secondary structure content; assay type: physicochemical; settings: fluorescein-labeled peptide 75 μM, 10 mM sodium phosphate pH 7.4, CDNN/PEPFIT; for Helix (α-helicity): unbound
Experimental: Spectra of fluorescein-labeled peptides were recorded with a J-715 circular dichroism spectrometer (Jasco) using a stoppered quartz cuvette (1 mm; Hellma). Peptide samples (c = 75 μM) were prepared in buffer: 10 mM disodium hydrogen phosphate, pH 7.4. For each sample, 10 CD spectra were measured between λ = 190 and 260 nm with continuous scan mode (10 mdeg sensitivity, 1.0 nm resolution, 1.0 nm bandwidth, 2 s integration time, 50 nm/min scan rate). Obtained spectra were averaged, then subtracted from a reference buffer spectrum and smoothed using a fast Fourier transform filter (FFT filter). The mean residue ellipticity (Θ) (deg·cm^2·dmol^−1·10^4) was calculated using Formula (2) and plotted against wavelength (λ) (nm). The ratio of secondary structure elements was calculated with CDNN using the PEPFIT set of reference spectra for secondary structure determination ([45],[46]):(2) where [Θ]m = mean molar ellipticity per peptide bond (degree·cm^2·dmol^−1·10^4), Θ = measured ellipticity (degree), d = optical path length (cm), cg = mass concentration (g·l^−1), MRW = mean residue weight, M = molar mass of the peptide (g·mol^−1) and N = number of peptide bonds.

miR-21 duplex = experiment: Thermal denaturation of miR-21 duplex (CD melting); assay type: binding; settings: miR-21 2 μM, unlabeled peptide 4 μM
Experimental: For each sample, 10 CD spectra were measured between λ = 200 and 350 nm with continuous scan mode (1 mdeg sensitivity, 1.0 nm resolution, 1.0 nm bandwidth, 2 s integration time, 100 nm·min^−1 scan rate). Obtained spectra were averaged and then subtracted from a reference buffer spectrum. CD data were normalized to oligonucleotide strand concentration using Formula (1):(1) where θ = observed ellipticity (mdeg), c = DNA strand concentration (mol·l^−1) and l = path length (cm).
Melting temperature (Tm) determination was conducted using the same instrumentation and sample preparation, where ellipticity (θ = 267 nm) was measured by ramping the temperature from 15–90°C (4°C·min^−1 ramp, ±0.05°C equilibration tolerance, 6 s delay after equilibration). Data points were recorded every 0.5°C. Raw data was normalized as described above and Tm-values were determined using the CDpal program ([44]) before being plotted in Prism 5.0 (GraphPad).

ds miR-21 = experiment: EMSA with ds miR-21; assay type: binding; settings: peptide 6 μM, ds miR-21 3 μM
Experimental: as §1, with “After incubation, bound nucleic acid complexes were resolved using 15% non-denaturing polyacrylamide gels (acrylamide/bis-acrylamide (19:1) in TAE) at 150 V in running buffer (TAE) at 4°C for 1.5 h, followed by visualization and staining with SYBR™ gold nucleic acid gel dye (Invitrogen).” left out

Row | SMILES | binding to ds pal-RNA in EMSA (ds pal-RNA) | Half-life (t1/2) (proteinase K) | Random coil [1] | β-Sheet [1] | β-Turn [1] | Helix (α-helicity) [1] | ΔTm of miR-21 duplex (miR-21 duplex) | binding to ds miR-21 in EMSA (ds miR-21) | fold increased stability compared to wt33 (proteinase K; proteinase K, fluorescein-labeled peptides)
1 | CC(C)C[C@H](NC(=O)[C@]1(C)CCCC=CCCC[C@](C)(NC(=O)[C@H](CCC(=O)O)NC(=O)[C@H](CO)NC(=O)[C@@H]2CCCN2C(=O)[C@H](CO)NC(=O)[C@H](CCCCN)NC(=O)[C@H](Cc2c[nH]cn2)NC(=O)CNC(=O)[C@H](CCCNC(=N)N)NC(=O)[C@]2(C)CCCC=CCCC[C@](C)(NC(=O)[C@H](CCCCN)NC(=O)[C@H](Cc3c[nH]cn3)NC(=O)[C@H](CCCNC(=N)N)NC(=O)[C@H](CCCCN)NC(=O)[C@H](CCCNC(=N)N)NC(=O)[C@H](CCC(N)=O)NC(=O)[C@H](C)NC(=O)[C@H](CCC(N)=O)NC(=O)[C@H](CCCCN)NC(=O)[C@H](CCCCN)NC(=O)COCCOCCNC(=S)Nc3ccc4c(c3)C(=O)OC43c4ccc(O)cc4Oc4cc(O)ccc43)C(=O)N[C@@H](CC(N)=O)C(=O)N[C@@H](CCCNC(=N)N)C(=O)N[C@@H](CCCCN)C(=O)N2)C(=O)N[C@@H](CCCNC(=N)N)C(=O)N[C@@H](CCCNC(=N)N)C(=O)N[C@@H](CO)C(=O)N1)C(=O)N[C@@H](Cc1c[nH]c2ccccc12)C(=O)N[C@@H](Cc1c[nH]cn1)C(=O)N[C@@H](C)C(=O)N[C@@H](CCCNC(=N)N)C(N)=O [B3] ({FITC-AEEA}-KKQAQRKRHK[S5]NRK[S5]RGHKSPSE[S5]RRS[S5]LWHAR-NH2; staple 11-15, 24-28) | full disappearance of the ds pal-RNA band | 6.18 h | 9.3% | 2.0% | 13.9% | 85.0% and 82–85% | > 10 °C | formation of peptide/RNA complexes | –
2 | CC(C)C[C@@H]1NC(=O)[C@@](C)(NC(=O)[C@H](CO)NC(=O)[C@H](CCCNC(=N)N)NC(=O)[C@H](CCCNC(=N)N)NC(=O)[C@H](CCC(N)=O)NC(=O)[C@H](CCC(=O)O)NC(=O)[C@H](CO)NC(=O)[C@@H]2CCCN2C(=O)[C@H](CO)NC(=O)[C@H](CCCCN)NC(=O)[C@H](Cc2c[nH]cn2)NC(=O)CNC(=O)[C@H](CCCNC(=N)N)NC(=O)[C@H](CCC(=O)O)NC(=O)[C@H](CCCCN)NC(=O)[C@H](CCCNC(=N)N)NC(=O)[C@H](CC(N)=O)NC(=O)[C@]2(C)CCCC=CCCCCCC[C@@](C)(NC(=O)[C@H](CCC(N)=O)NC(=O)[C@H](CCCCN)NC(=O)[C@H](CCCCN)NC(=O)COCCOCCNC(=S)Nc3ccc4c(c3)C(=O)OC43c4ccc(O)cc4Oc4cc(O)ccc43)C(=O)N[C@@H](CCC(N)=O)C(=O)N[C@@H](CCCNC(=N)N)C(=O)N[C@@H](CCCCN)C(=O)N[C@@H](CCCNC(=N)N)C(=O)N[C@@H](Cc3c[nH]cn3)C(=O)N[C@@H](CCCCN)C(=O)N2)CCCC=CCCC[C@@](C)(C(=O)N[C@@H](CCCNC(=N)N)C(N)=O)NC(=O)[C@H](Cc2c[nH]cn2)NC(=O)[C@H](Cc2c[nH]c3ccccc23)NC1=O [C1] ({FITC-AEEA}-KKQ[R8]QRKRHK[S5]NRKERGHKSPSEQRRS[S5]LWH[S5]R-NH2; staple 4-11, 28-32) | full disappearance of the ds pal-RNA band | 10.6 h | 47.0% | 0.2% | 1.8% | 81.5% and 82–85% | > 10 °C | formation of peptide/RNA complexes | 265 fold
3 | CC(C)C[C@@H]1NC(=O)[C@H](CCC(=O)O)NC(=O)[C@H](CO)NC(=O)[C@@](C)(NC(=O)[C@H](CCCNC(=N)N)NC(=O)[C@H](CCC(N)=O)NC(=O)[C@H](CCC(=O)O)NC(=O)[C@H](CO)NC(=O)[C@@H]2CCCN2C(=O)[C@H](CO)NC(=O)[C@H](CCCCN)NC(=O)[C@H](Cc2c[nH]cn2)NC(=O)[C@]2(C)CCCC=CCCCCCC[C@@](C)(NC(=O)[C@H](Cc3c[nH]cn3)NC(=O)[C@H](CCCNC(=N)N)NC(=O)[C@H](CCCCN)NC(=O)[C@H](CCCNC(=N)N)NC(=O)[C@H](CCC(N)=O)NC(=O)[C@H](C)NC(=O)[C@H](CCC(N)=O)NC(=O)[C@H](CCCCN)NC(=O)[C@H](CCCCN)NC(=O)COCCOCCNC(=S)Nc3ccc4c(c3)C(=O)OC43c4ccc(O)cc4Oc4cc(O)ccc43)C(=O)N[C@@H](CC(C)C)C(=O)N[C@@H](CC(N)=O)C(=O)N[C@@H](CCCNC(=N)N)C(=O)N[C@@H](CCCCN)C(=O)N[C@@H](CCC(=O)O)C(=O)N[C@@H](CCCNC(=N)N)C(=O)N2)CCCC=CCCC[C@@](C)(C(=O)N[C@@H](Cc2c[nH]cn2)C(=O)N[C@@H](C)C(=O)N[C@@H](CCCNC(=N)N)C(N)=O)NC1=O [D1] ({FITC-AEEA}-KKQAQRKRH[R8]LNRKER[S5]HKSPSEQR[S5]SEL[S5]HAR-NH2; staple 10-17, 26-30) | does not bind to ds pal-RNA | 4.65 h | 31.2% | 12.0% | 9.9% | 48.5% | only showed a mild effect on duplex stability | did not show binding | –
